Test results: patent US20240368135A1 (VERTEX PHARMACEUTICALS INCORPORATED, priority 2021, published 2024)

Target: human NaV 1.8 (Homo sapiens, UniProt Q9Y5Y9)
Test: E-VIPR assay detecting and measuring NaV inhibition properties
Assay type: cell-based
Conditions: HEK cells expressing truncated human NaV 1.8; no human serum; read-out: IC50 in the E-VIPR Assay
In short: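 HEK cells expressing truncated, fully active human NaV1.8, with KIR2.1 BacMam co-transduction, were loaded with CC2-DMPE/DiSBAC6(3) voltage-sensing dyes for 20 min at room temperature. Compounds were tested in 11-point 3-fold dilutions (300 nM top final), optionally with 25% human serum, under electrical stimulation with FRET read-out.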

Chain of human NaV 1.8 (Q9Y5Y9 126-399 limits assumed): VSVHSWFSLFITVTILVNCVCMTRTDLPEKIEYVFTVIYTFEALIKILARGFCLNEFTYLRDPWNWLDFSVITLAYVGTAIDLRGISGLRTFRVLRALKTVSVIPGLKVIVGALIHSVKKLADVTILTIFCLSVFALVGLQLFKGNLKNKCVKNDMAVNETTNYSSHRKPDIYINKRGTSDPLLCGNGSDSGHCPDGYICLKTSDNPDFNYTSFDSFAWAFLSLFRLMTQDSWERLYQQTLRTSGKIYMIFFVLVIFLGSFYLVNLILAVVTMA
Chain of human NaV 1.8 (Q9Y5Y9 660-890 limits assumed): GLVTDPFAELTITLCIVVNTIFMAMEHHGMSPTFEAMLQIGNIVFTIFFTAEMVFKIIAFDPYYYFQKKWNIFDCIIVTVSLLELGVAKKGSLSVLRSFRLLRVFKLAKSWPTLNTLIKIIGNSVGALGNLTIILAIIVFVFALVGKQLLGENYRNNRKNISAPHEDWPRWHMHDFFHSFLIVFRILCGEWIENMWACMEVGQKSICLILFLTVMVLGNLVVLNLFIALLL
Chain of human NaV 1.8 (Q9Y5Y9 1148-1722 limits assumed): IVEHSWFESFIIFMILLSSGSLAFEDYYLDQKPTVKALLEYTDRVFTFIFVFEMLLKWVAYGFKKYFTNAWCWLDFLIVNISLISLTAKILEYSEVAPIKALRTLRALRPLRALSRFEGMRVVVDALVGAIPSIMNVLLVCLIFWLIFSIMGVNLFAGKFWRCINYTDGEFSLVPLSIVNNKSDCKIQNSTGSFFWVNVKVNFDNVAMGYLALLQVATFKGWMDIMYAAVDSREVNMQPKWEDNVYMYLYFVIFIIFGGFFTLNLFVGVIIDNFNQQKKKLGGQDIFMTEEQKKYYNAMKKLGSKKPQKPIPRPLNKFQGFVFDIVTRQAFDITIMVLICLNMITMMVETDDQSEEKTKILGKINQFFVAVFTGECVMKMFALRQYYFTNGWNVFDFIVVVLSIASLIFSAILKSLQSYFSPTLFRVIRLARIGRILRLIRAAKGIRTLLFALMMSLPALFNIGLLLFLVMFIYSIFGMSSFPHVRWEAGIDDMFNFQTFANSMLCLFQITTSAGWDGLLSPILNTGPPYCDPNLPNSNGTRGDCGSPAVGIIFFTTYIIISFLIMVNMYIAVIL

IC50 [µM]	SMILES
≥ 1	COc1c(C2C(C(=O)Nc3cccc(P(C)(C)=O)c3)OC(C)(C(F)(F)F)C2C)ccc(F)c1F (single isomer, unassigned) [Compound 41, 3-(3,4-difluoro-2-methoxy-phenyl)-N-(3-dimethylphosphorylphenyl)-4,5-dimethyl-5-(trifluoromethyl)tetrahydrofuran-2-carboxamide]
0.01 to 0.1	COCCOc1cc(NC(=O)C2OC(C)(C(F)(F)F)C(C)C2c2ccc(F)c(F)c2OC)cnn1 (single isomer, unassigned) [Compound 34, 3-(3,4-difluoro-2-methoxy-phenyl)-N-[6-(2-methoxyethoxy)pyridazin-4-yl]-4,5-dimethyl-5-(trifluoromethyl)tetrahydrofuran-2-carboxamide]
0.01 to 0.1	COc1c([C@H]2[C@H](C(=O)Nc3cnc4c(c3)OCC4O)O[C@@](C)(C(F)(F)F)[C@H]2C)ccc(F)c1F (single isomer, unassigned) [Compound 408, rel-(2R*,3S*,4S*,5R*)-3-(3,4-difluoro-2-methoxyphenyl)-N-(3-hydroxy-2,3-dihydrofuro[3,2-b]pyridin-6-yl)-4,5-dimethyl-5-(trifluoromethyl)-tetrahydrofuran-2-carboxamide]
≥ 1	C[C@H]1[C@@H](c2ccc(F)c(F)c2OCCO)[C@H](C(=O)Nc2cnc(N3CCOCC3)nc2)O[C@@]1(C)C(F)(F)F [Compound 542, (2R,3S,4S,5R)-3-(3,4-difluoro-2-(2-hydroxyethoxy)phenyl)-4,5-dimethyl-N-(2-morpholinopyrimidin-5-yl)-5-(trifluoromethyl)tetrahydrofuran-2-carboxamide]
< 0.01	COC[C@@H](O)Cc1cc(NC(=O)[C@@H]2O[C@@](C)(C(F)(F)F)[C@@H](C)[C@H]2c2ccc(F)c(F)c2OC)ccn1 [Compound 369, (2R,3S,4S,5R)-3-(3,4-difluoro-2-methoxyphenyl)-N-(2-((S)-2-hydroxy-3-methoxypropyl)pyridin-4-yl)-4,5-dimethyl-5-(trifluoromethyl)tetrahydrofuran-2-carboxamide]
< 0.01	COc1c([C@H]2[C@H](C(=O)Nc3ccnc(C(CO)OC)c3)O[C@@](C)(C(F)(F)F)[C@H]2C)ccc(F)c1F (single isomer, unassigned) [Compound 248, rel-(2R*,3S*,4S*,5R*)-3-(3,4-difluoro-2-methoxyphenyl)-N-(2-(2-hydroxy-1-methoxyethyl)pyridin-4-yl)-4,5-dimethyl-5-(trifluoromethyl)tetrahydrofuran-2-carboxamide]
< 0.01	C[C@@H]1CN(C)CC(=O)N1c1cc(NC(=O)[C@@H]2O[C@@](C)(C(F)(F)F)[C@@H](C)[C@H]2c2ccc(F)c(F)c2OC(F)F)ccn1 [Compound 517, (2R,3S,4S,5R)-3-[2-(difluoromethoxy)-3,4-difluoro-phenyl]-N-[2-[(2R)-2,4-dimethyl-6-oxo-piperazin-1-yl]-4-pyridyl]-4,5-dimethyl-5-(trifluoromethyl)tetrahydrofuran-2-carboxamide]

SMILES	IC50 [µM]
Cc1nn(C(F)F)cc1NC(=O)[C@@H]1O[C@@](C)(C(F)(F)F)[C@@H](C)[C@H]1c1ccc(F)c(F)c1OC1CC(O)C1 (stereo partly drawn) [Compound 600, (2R,3S,4S,5R)-3-[3,4-difluoro-2-(3-hydroxycyclobutoxy)phenyl]-N-[1-(difluoromethyl)-3-methyl-pyrazol-4-yl]-4,5-dimethyl-5-(trifluoromethyl)tetrahydrofuran-2-carboxamide]	0.01 to 0.1
C[C@H]1[C@@H](c2ccc(F)c(F)c2O[C@H]2C[C@@H](O)C2)[C@H](C(=O)Nc2ccnnc2)O[C@@]1(C)C(F)(F)F [Compound 658, (2R,3S,4S,5R)-3-(3,4-difluoro-2-((1s,3R)-3-hydroxycyclobutoxy)phenyl)-4,5-dimethyl-N-(pyridazin-4-yl)-5-(trifluoromethyl)tetrahydrofuran-2-carboxamide]	0.01 to 0.1
